Results taken from ChEMBL document CHEMBL3217743, “Reduction of acyl glucuronidation in a series of acidic 11-hydroxysteroid dehydrogenase type 1 (11-HSD1) inhibitors: the discovery of AZD6925” (Medchemcomm, 2012).
Calls of active or inactive are those of the source. The calls are words filed in the database; no cut-off is given here.

Key:
[1] = Fraction unbound in mouse plasma by equilibrium dialysis technique; format: ADME, cell-free
[2] = Fraction unbound in dog plasma by equilibrium dialysis technique; format: ADME, cell-free, Canis lupus familiaris
[3] = Plasma clearance in mouse at 1 to 3 mg/kg; format: ADME, organism-based; design: dose 1-3 mg/kg
[4] = Plasma clearance in rat at 1 to 3 mg/kg; format: ADME, organism-based; design: dose 1-3 mg/kg
[5] = Volume of distribution at steady state in mouse at 1 to 3 mg/kg; format: ADME, organism-based; design: dose 1-3 mg/kg; settings: in vivo, read-out: Vdss
[6] = Volume of distribution at steady state in dog at 1 to 3 mg/kg; format: ADME, organism-based, Canis lupus familiaris; design: dose 1-3 mg/kg; settings: in vivo, read-out: Vdss
[7] = Half life in dog at 1 to 3 mg/kg, iv; format: ADME, organism-based, Canis lupus familiaris; design: dose 1-3 mg/kg, route intravenous; settings: in vivo
[8] = Half life in mouse at 1 to 3 mg/kg, po; format: ADME, organism-based; design: dose 1-3 mg/kg, route oral; settings: in vivo
[9] = Drug metabolism in rat hepatocytes assessed as compound remaining by LC-MS/MS analysis; format: ADME, cell-based, Hepatocyte
[10] = Drug excretion in bile duct cannulated rat bile assessed as compound remaining by HPLC analysis; format: ADME, tissue-based; settings: in vivo
[11] = target: T1, 11-beta-hydroxysteroid dehydrogenase type 2 (Homo sapiens, UniProt P80365); assay: Inhibition of recombinant 11beta-HSD2 (unknown origin) assessed as conversion of cortisol to cortisone after 40 mins by fluorescence assay
T1 sequence (P80365 whole entry): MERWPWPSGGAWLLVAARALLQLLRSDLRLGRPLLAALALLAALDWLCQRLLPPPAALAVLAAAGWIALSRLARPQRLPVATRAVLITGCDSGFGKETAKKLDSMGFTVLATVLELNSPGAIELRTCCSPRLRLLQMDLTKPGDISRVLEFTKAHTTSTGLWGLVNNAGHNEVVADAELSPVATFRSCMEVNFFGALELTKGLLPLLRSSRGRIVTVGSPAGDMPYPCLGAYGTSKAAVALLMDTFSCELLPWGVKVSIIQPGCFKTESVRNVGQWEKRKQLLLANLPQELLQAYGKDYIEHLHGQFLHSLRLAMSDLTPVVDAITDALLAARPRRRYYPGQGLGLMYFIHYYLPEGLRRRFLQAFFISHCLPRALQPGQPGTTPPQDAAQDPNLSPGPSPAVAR

[12] = target: T2, Glucocorticoid receptor (Homo sapiens) (UniProt P04150); assay: Activity at glucocorticoid receptor (unknown origin)
T2 sequence (whole entry): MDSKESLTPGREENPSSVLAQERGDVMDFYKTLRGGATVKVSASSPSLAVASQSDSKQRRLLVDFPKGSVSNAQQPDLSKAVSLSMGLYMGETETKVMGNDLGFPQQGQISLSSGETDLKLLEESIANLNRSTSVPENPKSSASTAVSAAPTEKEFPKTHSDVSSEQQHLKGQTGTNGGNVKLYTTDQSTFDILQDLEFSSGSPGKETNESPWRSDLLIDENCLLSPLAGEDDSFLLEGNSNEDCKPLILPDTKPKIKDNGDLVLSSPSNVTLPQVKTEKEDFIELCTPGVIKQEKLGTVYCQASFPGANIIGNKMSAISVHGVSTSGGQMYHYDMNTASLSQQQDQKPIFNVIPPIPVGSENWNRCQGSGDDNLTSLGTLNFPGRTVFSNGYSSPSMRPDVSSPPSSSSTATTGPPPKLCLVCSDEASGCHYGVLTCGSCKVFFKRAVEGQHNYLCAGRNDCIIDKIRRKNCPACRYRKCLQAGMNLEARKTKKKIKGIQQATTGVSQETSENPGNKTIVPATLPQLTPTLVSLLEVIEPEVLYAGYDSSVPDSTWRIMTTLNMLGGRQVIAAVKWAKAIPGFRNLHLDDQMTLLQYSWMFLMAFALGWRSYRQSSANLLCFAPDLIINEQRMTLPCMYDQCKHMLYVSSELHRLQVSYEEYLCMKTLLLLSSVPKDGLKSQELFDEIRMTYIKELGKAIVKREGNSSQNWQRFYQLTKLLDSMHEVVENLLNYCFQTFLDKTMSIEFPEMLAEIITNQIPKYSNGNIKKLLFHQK

Salmonella typhimurium = assay: Genotoxicity in Salmonella typhimurium by Ames test; format: toxicity, organism-based; settings: salmonella enterica subsp. enterica serovar typhimurium
Phosphodiesterase 4 = Phosphodiesterase 4 (Homo sapiens, UniProt P27815+Q08499+Q07343+Q08493); assay: Inhibition of PDE4 (unknown origin); format: protein assay
[13] = target: Sigma non-opioid intracellular receptor 1 (Homo sapiens, UniProt Q99720); assay: Inhibition of sigma-1 receptor (unknown origin)
Sigma non-opioid intracellular receptor 1, sequence (Q99720 whole entry): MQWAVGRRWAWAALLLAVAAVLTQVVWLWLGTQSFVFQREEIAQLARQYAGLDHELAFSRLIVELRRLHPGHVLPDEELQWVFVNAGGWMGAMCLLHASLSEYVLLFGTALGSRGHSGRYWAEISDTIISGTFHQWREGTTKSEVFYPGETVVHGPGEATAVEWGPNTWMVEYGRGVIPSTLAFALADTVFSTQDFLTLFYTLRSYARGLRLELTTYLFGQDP

[14] = target: 11-beta-hydroxysteroid dehydrogenase 1 (Mus musculus, UniProt P50172); assay: Inhibition of N-terminal 6-His-tagged mouse full length 11beta-HSD1 assessed as conversion of cortisone to cortisol after 25 mins by HTRF assay
11-beta-hydroxysteroid dehydrogenase 1 (Mus musculus, UniProt P50172), sequence (P50172 whole entry): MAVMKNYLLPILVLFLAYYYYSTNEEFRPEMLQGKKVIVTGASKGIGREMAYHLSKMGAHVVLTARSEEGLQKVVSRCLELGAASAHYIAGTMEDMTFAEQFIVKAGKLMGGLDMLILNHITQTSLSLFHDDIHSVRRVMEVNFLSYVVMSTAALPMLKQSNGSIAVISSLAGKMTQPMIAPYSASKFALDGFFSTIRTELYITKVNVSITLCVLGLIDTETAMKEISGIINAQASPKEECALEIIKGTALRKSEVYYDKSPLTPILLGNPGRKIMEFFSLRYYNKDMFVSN

[15] = Inhibition of N-terminal 6-His-tagged dog full length 11beta-HSD1 assessed as conversion of cortisone to cortisol after 25 mins by HTRF assay; design: species or system Canis lupus familiaris
[16] = Octanol-buffer partition coefficient, log D of the compound at pH 7.4 after 30 mins by shake-flask method; format: physicochemical
[17] = Fraction unbound in rat plasma by equilibrium dialysis technique; format: ADME, cell-free
[18] = Clearance in rat; format: ADME, organism-based; settings: in vivo
CYP1A2 = target: T3, CYP1A2 (Homo sapiens, UniProt P05177); assay: Inhibition of CYP1A2 (unknown origin) at 10 uM relative to control; format: ADME
T3 sequence (P05177 whole entry): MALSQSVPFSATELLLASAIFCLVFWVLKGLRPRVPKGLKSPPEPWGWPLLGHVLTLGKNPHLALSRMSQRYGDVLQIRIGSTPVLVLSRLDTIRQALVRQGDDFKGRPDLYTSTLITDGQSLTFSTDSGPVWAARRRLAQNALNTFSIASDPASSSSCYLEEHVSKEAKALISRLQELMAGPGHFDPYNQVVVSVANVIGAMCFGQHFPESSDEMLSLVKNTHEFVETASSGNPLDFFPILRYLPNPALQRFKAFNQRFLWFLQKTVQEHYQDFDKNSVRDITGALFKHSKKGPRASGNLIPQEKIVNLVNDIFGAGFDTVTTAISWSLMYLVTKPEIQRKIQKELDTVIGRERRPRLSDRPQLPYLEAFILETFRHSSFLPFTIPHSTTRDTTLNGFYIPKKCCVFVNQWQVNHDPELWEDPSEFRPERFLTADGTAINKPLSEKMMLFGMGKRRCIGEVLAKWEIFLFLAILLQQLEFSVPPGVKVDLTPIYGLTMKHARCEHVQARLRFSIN

CYP2D6 = CYP2D6 (Homo sapiens, UniProt P10635); assay: Inhibition of CYP2D6 (unknown origin) at 10 uM relative to control; format: ADME
CYP2D6, sequence (P10635 whole entry): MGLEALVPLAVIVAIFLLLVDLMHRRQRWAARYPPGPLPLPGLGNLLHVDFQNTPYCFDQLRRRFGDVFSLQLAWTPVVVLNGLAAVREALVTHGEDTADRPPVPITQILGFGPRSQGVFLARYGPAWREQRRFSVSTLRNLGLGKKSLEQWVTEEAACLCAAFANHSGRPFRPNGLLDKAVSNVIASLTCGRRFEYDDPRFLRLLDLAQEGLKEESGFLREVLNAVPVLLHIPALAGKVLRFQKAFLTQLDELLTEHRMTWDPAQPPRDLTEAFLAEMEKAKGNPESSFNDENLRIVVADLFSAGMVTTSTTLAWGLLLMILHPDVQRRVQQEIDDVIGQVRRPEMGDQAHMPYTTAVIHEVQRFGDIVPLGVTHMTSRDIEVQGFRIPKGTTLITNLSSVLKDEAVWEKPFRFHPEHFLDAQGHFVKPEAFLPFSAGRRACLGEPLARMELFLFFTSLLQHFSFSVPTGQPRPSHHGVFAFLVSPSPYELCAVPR

CYP2C9 = CYP2C9 (Homo sapiens, UniProt P11712); assay: Inhibition of CYP2C9 (unknown origin) at 10 uM relative to control; format: ADME
CYP2C9, sequence (P11712 whole entry): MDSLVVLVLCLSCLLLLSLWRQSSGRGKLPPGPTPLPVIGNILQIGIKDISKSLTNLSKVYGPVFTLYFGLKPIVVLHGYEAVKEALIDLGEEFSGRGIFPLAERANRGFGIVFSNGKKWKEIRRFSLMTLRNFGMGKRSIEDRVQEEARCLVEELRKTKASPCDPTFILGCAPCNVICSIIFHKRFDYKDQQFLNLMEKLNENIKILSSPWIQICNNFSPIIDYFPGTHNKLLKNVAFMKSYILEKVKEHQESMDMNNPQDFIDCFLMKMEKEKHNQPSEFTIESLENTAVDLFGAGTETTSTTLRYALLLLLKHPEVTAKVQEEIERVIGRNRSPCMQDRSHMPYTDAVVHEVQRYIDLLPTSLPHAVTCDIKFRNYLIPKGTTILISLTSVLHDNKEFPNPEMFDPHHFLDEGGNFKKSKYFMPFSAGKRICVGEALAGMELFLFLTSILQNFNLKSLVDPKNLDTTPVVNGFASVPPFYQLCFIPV

[19] = Aqueous solubility of crystalline form of compound in phosphate buffer at pH 7.4 after 24 hrs by LC-UV analysis; format: physicochemical
[20] = target: 11-beta-hydroxysteroid dehydrogenase 1 (Homo sapiens, UniProt P28845)
11-beta-hydroxysteroid dehydrogenase 1 (Homo sapiens, UniProt P28845), sequence (P28845 whole entry): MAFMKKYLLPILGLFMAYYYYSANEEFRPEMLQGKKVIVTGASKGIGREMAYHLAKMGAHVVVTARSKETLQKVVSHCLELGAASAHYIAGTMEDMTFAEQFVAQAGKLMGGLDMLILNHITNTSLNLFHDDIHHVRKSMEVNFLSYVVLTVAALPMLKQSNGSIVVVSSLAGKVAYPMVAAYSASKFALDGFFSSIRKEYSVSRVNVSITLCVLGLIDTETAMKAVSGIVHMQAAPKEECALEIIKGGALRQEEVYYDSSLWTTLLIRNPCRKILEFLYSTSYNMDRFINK
Description: Inhibition of N-terminal 6-His-tagged human full length 11beta-HSD1 assessed as conversion of cortisone to cortisol after 25 mins by HTRF assay

Q: Which fraction unbound [1] does the source give for `CSc1nc(N2C[C@@H]3[C@H](C2)[C@H]3C(=O)O)ccc1C(=O)NC12CC3CC(CC(C3)C1)C2` here?
A: 0.023

Q: And the fraction unbound [2]?
A: 0.015

Q: And the clearance [3]?
A: 0.54 L/h/kg

Q: And the clearance [4]?
A: 0.36 L/h/kg

Q: What about the Vd [5] of the same compound?
A: 1.2 L/kg

Q: What about the Vd [6] of the same compound?
A: 0.7 L/kg

Q: And the half-life [7]?
A: 15 h

Q: And the half-life [8]?
A: 2.5 h

Q: And the Stability [9]?
A: 82%

Q: What about the Stability [10] of the same compound?
A: 52.8%

Q: What about the IC50 [11] of the same compound?
A: > 30 µM

Q: What about the Activity [12] of the same compound?
A: inactive

Q: And the Activity (Salmonella typhimurium)?
A: Non-toxic

Q: What about the IC50 (Phosphodiesterase 4) of the same compound?
A: 30 µM

Q: What about the IC50 [13] of the same compound?
A: 30 µM

Q: And the IC50 [14]?
A: 0.31 µM

Q: And the IC50 [15]?
A: 0.12 µM

Q: And the logD at 0.5 h [16]?
A: 2.1

Q: And the fraction unbound [17]?
A: 0.017

Q: And the clearance [18]?
A: 0.36 L/h/kg

Q: What about the inhibition at 10 µM (CYP1A2) of the same compound?
A: < 25%

Q: And the inhibition at 10 µM (CYP2D6)?
A: < 25%

Q: What about the inhibition at 10 µM (CYP2C9) of the same compound?
A: < 25%

Q: And the solubility thermodynamic at 24 h [19]?
A: > 3000 µM

Q: And the IC50 [20]?
A: 0.006 µM
